Data reported in patent US11325889B2, “Substituted 3-((3-aminophenyl)amino)piperidine-2,6-dione compounds, compositions thereof, and methods of treatment therewith” (Celgene Corporation, priority 2018, dated 2022).
Like-named read-outs stand apart in the source and are kept apart here.

Biological target: T1, AR protein in VCaP cells (Homo sapiens, UniProt P10275)
T1 construct: endogenous in cells; host or cells: VCaP cells
T1 sequence (P10275 1-920): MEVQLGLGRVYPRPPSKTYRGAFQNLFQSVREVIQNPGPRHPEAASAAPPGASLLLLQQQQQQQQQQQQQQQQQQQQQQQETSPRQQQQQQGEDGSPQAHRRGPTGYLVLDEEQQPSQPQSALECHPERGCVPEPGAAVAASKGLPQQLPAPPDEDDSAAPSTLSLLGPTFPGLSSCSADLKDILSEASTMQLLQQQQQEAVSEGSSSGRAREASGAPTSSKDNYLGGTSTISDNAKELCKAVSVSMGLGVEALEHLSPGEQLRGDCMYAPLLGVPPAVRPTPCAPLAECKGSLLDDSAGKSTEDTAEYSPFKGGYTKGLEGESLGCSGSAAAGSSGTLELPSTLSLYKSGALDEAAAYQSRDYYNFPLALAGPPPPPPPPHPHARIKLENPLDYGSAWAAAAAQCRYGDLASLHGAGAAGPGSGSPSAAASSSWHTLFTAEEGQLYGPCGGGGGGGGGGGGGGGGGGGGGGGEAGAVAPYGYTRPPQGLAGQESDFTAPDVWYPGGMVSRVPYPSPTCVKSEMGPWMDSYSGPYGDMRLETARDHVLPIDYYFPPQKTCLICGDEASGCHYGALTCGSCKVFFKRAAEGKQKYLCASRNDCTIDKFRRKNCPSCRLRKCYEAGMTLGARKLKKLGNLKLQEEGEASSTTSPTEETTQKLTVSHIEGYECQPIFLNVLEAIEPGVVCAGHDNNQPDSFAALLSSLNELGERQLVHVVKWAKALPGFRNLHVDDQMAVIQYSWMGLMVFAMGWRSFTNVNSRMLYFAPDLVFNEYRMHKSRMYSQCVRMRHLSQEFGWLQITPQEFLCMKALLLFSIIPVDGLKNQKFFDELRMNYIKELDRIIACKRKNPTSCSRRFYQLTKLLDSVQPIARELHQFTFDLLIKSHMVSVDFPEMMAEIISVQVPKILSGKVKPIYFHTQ
Test: VCAP AR Degradation Assay (AR ELISA, 24 h)
Type: cell-based
Conditions: for Y (lowest measured AR level normalized to DMSO control): AR degradation efficiency; for DC50: concentration of compound when AR level = 50% of DMSO control
Summary of the method: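 VCaP cells in DMEM with 8% FBS exposed for 24 h at 37° C to a 10-point, 1:3 series (final top concentration […]; 0.1% DMSO control). Lysate AR measured by sandwich ELISA and normalized to DMSO as percent of control. DC50, EC50 and lowest AR level (Y) from four-parameter logistic fit.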

Compound | Y (lowest measured AR level normalized to DMSO control) | DC50 [nM] | DC50 (read-out: DC50) [nM]
CCc1cc(N2C(=S)N(c3cnc(C#N)c(C(F)(F)F)c3)C(=O)C23CCC3)ccc1OCCC1C[C@H]2CC[C@@H](C1)N2CC(=O)Nc1cc(Cl)cc(NC2CCC(=O)NC2=O)c1 (stereo partly drawn) [Cmpd 69, N-(3-chloro-5-(2,6-dioxopiperidin-3-ylamino)phenyl)-2-((1R,5S)-3-(2-(4-(7-(6-cyano-5-(trifluoromethyl)pyridin-3-yl)-8-oxo-6-thioxo-5,7-diazaspiro[3.4]octan-5-yl)-2-ethylphenoxy)ethyl)-8-azabicyclo[3.2.1]octan-8-yl)acetamide] | ** (25%<Y<=35%) | 100 to 500 | –
CCc1cc(N2C(=S)N(c3cnc(C#N)c(C(F)(F)F)c3)C(=O)C2(C)C)ccc1OCC[C@H]1CCN(CC(=O)Nc2cccc(NC3CCC(=O)NC3=O)c2)[C@H](C)C1 (stereo partly drawn) [Cmpd 76, 2-((2R,4S)-4-(2-(4-(3-(6-cyano-5-(trifluoromethyl)pyridin-3-yl)-5,5-dimethyl-4-oxo-2-thioxoimidazolidin-1-yl)-2-ethylphenoxy)ethyl)-2-methylpiperidin-1-yl)-N-(3-(2,6-dioxopiperidin-3-ylamino)phenyl)acetamide] | * (0<Y<=25%) | – | < 100
CCc1cc(N2C(=S)N(c3ccc(C#N)c(C(F)(F)F)c3)C(=O)C2(C)C)cnc1O[C@H]1C[C@@H](C)N(CC(=O)Nc2cccc(NC3CCC(=O)NC3=O)c2)[C@@H](C)C1 (stereo partly drawn) [Cmpd 95, 2-((2R,4r,6S)-4-((5-(3-(4-cyano-3-(trifluoromethyl)phenyl)-5,5-dimethyl-4-oxo-2-thioxoimidazolidin-1-yl)-3-ethylpyridin-2-yl)oxy)-2,6-dimethylpiperidin-1-yl)-N-(3-((2,6-dioxopiperidin-3-yl)amino)phenyl)acetamide] | ** (25%<Y<=35%) | – | 500 to 1000
CCc1cc(N2C(=S)N(c3ccc(C#N)c(C(F)(F)F)c3)C(=O)C23CCC3)ccc1OCCC1CCN([C@H](C)C(=O)Nc2cccc(NC3CCC(=O)NC3=O)c2)CC1 (stereo partly drawn) [Cmpd 60, (2R)-2-(4-(2-(4-(7-(4-cyano-3-(trifluoromethyl)phenyl)-8-oxo-6-thioxo-5,7-diazaspiro[3.4]octan-5-yl)-2-ethylphenoxy)ethyl)piperidin-1-yl)-N-(3-(2,6-dioxopiperidin-3-ylamino)phenyl)propanamide] | ** (25%<Y<=35%) | – | 100 to 500
CCc1cc(N2C(=S)N(c3cnc(C#N)c(C(F)(F)F)c3)C(=O)C23CCC3)ccc1OCC[C@H]1CCN(CC(=O)Nc2cccc(NC3CCC(=O)NC3=O)c2)C(C)(C)C1 (stereo partly drawn) [Cmpd 55, 2-((S)-4-(2-(4-(7-(6-cyano-5-(trifluoromethyl)pyridin-3-yl)-8-oxo-6-thioxo-5,7-diazaspiro[3.4]octan-5-yl)-2-ethylphenoxy)ethyl)-2,2-dimethylpiperidin-1-yl)-N-(3-(2,6-dioxopiperidin-3-ylamino)phenyl)acetamide] | * (0<Y<=25%) | – | 100 to 500
CCc1cc(N2C(=S)N(c3cnc(C#N)c(C(F)(F)F)c3)C(=O)C23CCC3)ccc1OCCC1CCN(CC(=O)Nc2cc(NC3CCC(=O)NC3=O)ccc2F)CC1 (stereo not drawn) [Cmpd 56, 2-(4-(2-(4-(7-(6-cyano-5-(trifluoromethyl)pyridin-3-yl)-8-oxo-6-thioxo-5,7-diazaspiro[3.4]octan-5-yl)-2-ethylphenoxy)ethyl)piperidin-1-yl)-N-(5-(2,6-dioxopiperidin-3-ylamino)-2-fluorophenyl)acetamide] | * (0<Y<=25%) | – | 100 to 500
CCc1cc(N2C(=S)N(c3cnc(C#N)c(C(F)(F)F)c3)C(=O)C2(C)C)ccc1OCCC1CCN([C@@H](C)C(=O)Nc2cccc(N[C@H]3CCC(=O)NC3=O)c2)CC1 [Cmpd 46, (S)-2-(4-(2-(4-(3-(6-cyano-5-(trifluoromethyl)pyridin-3-yl)-5,5-dimethyl-4-oxo-2-thioxoimidazolidin-1-yl)-2-ethylphenoxy)ethyl)piperidin-1-yl)-N-(3-((S)-2,6-dioxopiperidin-3-ylamino)phenyl)propanamide] | * (0<Y<=25%) | – | < 100
CCc1cc(N2C(=S)N(c3cnc(C#N)c(C(F)(F)F)c3)C(=O)C2(C)C)ccc1OCCC1CCN(CC(=O)Nc2cc(F)cc(NC3CCC(=O)NC3=O)c2)CC1 (stereo not drawn) [Cmpd 16, 2-(4-(2-(4-(3-(6-cyano-5-(trifluoromethyl)pyridin-3-yl)-5,5-dimethyl-4-oxo-2-thioxoimidazolidin-1-yl)-2-ethylphenoxy)ethyl)piperidin-1-yl)-N-(3-(2,6-dioxopiperidin-3-ylamino)-5-fluorophenyl)acetamide] | * (0<Y<=25%) | – | < 100
CCc1cc(N2C(=S)N(c3ccc(C#N)c(C(F)(F)F)c3)C(=O)C2(C)C)ccc1OCCC1(F)CCN(CC(=O)Nc2cc(Cl)cc(NC3CCC(=O)NC3=O)c2)CC1 (stereo not drawn) [Cmpd 90, N-(3-chloro-5-(2,6-dioxopiperidin-3-ylamino)phenyl)-2-(4-(2-(4-(3-(4-cyano-3-(trifluoromethyl)phenyl)-5,5-dimethyl-4-oxo-2-thioxoimidazolidin-1-yl)-2-ethylphenoxy)ethyl)-4-fluoropiperidin-1-yl)acetamide] | * (0<Y<=25%) | – | < 100
CCc1cc(N2C(=S)N(c3cnc(C#N)c(C(F)(F)F)c3)C(=O)C2(C)C)ccc1OCCC1CCN(CC(=O)Nc2cc(NC3CCC(=O)NC3=O)ccc2F)CC1 (stereo not drawn) [Cmpd 15, 2-(4-(2-(4-(3-(6-cyano-5-(trifluoromethyl)pyridin-3-yl)-5,5-dimethyl-4-oxo-2-thioxoimidazolidin-1-yl)-2-ethylphenoxy)ethyl)piperidin-1-yl)-N-(5-(2,6-dioxopiperidin-3-ylamino)-2-fluorophenyl)acetamide] | * (0<Y<=25%) | – | < 100
CCc1cc(N2C(=S)N(c3ccc(C#N)c(C(F)(F)F)c3)C(=O)C2(C)C)ccc1OCCC1CCN(CC(=O)Nc2cc(C#N)cc(NC3CCC(=O)NC3=O)c2)CC1 (stereo not drawn) [Cmpd 40, 2-(4-(2-(4-(3-(4-cyano-3-(trifluoromethyl)phenyl)-5,5-dimethyl-4-oxo-2-thioxoimidazolidin-1-yl)-2-ethylphenoxy)ethyl)piperidin-1-yl)-N-(3-cyano-5-(2,6-dioxopiperidin-3-ylamino)phenyl)acetamide] | ** (25%<Y<=35%) | – | 100 to 500
CCc1cc(N2C(=S)N(c3cnc(C#N)c(C(F)(F)F)c3)C(=O)C2(C)C)ccc1OCCC1CCN(CC(=O)Nc2cc(C#N)cc(NC3CCC(=O)NC3=O)c2)CC1 (stereo not drawn) [Cmpd 39, N-(3-cyano-5-(2,6-dioxopiperidin-3-ylamino)phenyl)-2-(4-(2-(4-(3-(6-cyano-5-(trifluoromethyl)pyridin-3-yl)-5,5-dimethyl-4-oxo-2-thioxoimidazolidin-1-yl)-2-ethylphenoxy)ethyl)piperidin-1-yl)acetamide] | ** (25%<Y<=35%) | – | < 100
CCc1cc(N2C(=S)N(c3ccc(C#N)c(C(F)(F)F)c3)C(=O)C2(C)C)ccc1OC1CCN(CC(=O)Nc2cccc(NC3CCC(=O)NC3=O)c2)CC1 (stereo not drawn) [Cmpd 50, 2-(4-(4-(3-(4-cyano-3-(trifluoromethyl)phenyl)-5,5-dimethyl-4-oxo-2-thioxoimidazolidin-1-yl)-2-ethylphenoxy)piperidin-1-yl)-N-(3-(2,6-dioxopiperidin-3-ylamino)phenyl)acetamide] | ** (25%<Y<=35%) | – | 100 to 500
CCc1cc(N2C(=S)N(c3ccc(C#N)c(C(F)(F)F)c3)C(=O)C2(C)C)ccc1OCCC1CCN([C@H](C)C(=O)Nc2cc(Cl)cc(NC3CCC(=O)NC3=O)c2)CC1 (stereo partly drawn) [Cmpd 21, (2R)-N-(3-chloro-5-(2,6-dioxopiperidin-3-ylamino)phenyl)-2-(4-(2-(4-(3-(4-cyano-3-(trifluoromethyl)phenyl)-5,5-dimethyl-4-oxo-2-thioxoimidazolidin-1-yl)-2-ethylphenoxy)ethyl)piperidin-1-yl)propanamide] | * (0<Y<=25%) | – | 100 to 500
CCc1cc(N2C(=S)N(c3ccc(C#N)c(C(F)(F)F)c3)C(=O)C23CCC3)ccc1OCCC1CCN(CC(=O)Nc2cc(NC3CCC(=O)NC3=O)ccc2F)CC1 (stereo not drawn) [Cmpd 57, 2-(4-(2-(4-(7-(4-cyano-3-(trifluoromethyl)phenyl)-8-oxo-6-thioxo-5,7-diazaspiro[3.4]octan-5-yl)-2-ethylphenoxy)ethyl)piperidin-1-yl)-N-(5-(2,6-dioxopiperidin-3-ylamino)-2-fluorophenyl)acetamide] | * (0<Y<=25%) | – | 100 to 500
